The results in this text go back to PubChem BioAssay (NCI).

What all share (experiment): NCI anticancer screen, dose series, 48 h
In assay [1] the test system is A549 NSCLC.
Assay [2] deals with CCRF-CEM leukemia.
Assay [3] deals with HCC-2998 colon.
Assay [4] has as its system HT29 colon.
The subject of assay [5] is KM12 colon.
Assay [6] relates to MALME-3M melanoma.
Assay [7] deals with NCI-H23 lung.
Assay [8] relates to PC-3 prostate.
The test system of assay [9] is RPMI-8226 leukemia.
In assay [10] the test system is HOP-92 NSCLC.

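Test compounds were applied to cells in 96-well plates for 48 hours at 5 doses. TGI is the concentration that stops growth completely.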

As to `Nc1nc(-c2ccccc2)cc(-c2ccc(F)cc2)c1-c1ccc(Cl)cc1`, the TGI in assay [1], in [2], in [3], in [4], in assay [5] and in [6] was above 100 µM in each case. The TGI in assay [7], in [8] and in [9] was above 100 µM each time.

As for `OCCOCn1nc(-c2ccccc2)nc1-c1cnccn1`, the TGI in assay [1], in assay [2], in assay [3], in assay [10], in assay [4] and in assay [5] was above 100 µM throughout. The TGI in [7], in [8] and in [9] was above 100 µM in each case.

Regarding `CC1(C)OC2C(CO)OC(/N=C(\NC#N)Oc3ccccc3)C2O1` (stereo not drawn), the TGI in assay [1], in assay [2], in assay [3], in assay [4], in assay [5] and in assay [7] was above 100 µM throughout. Besides, the TGI in assay [9] is above 100 µM.

Turning to `Nc1c(Cl)ncnc1NCC1(CO)CCC1`, the TGI in assay [1], in assay [2], in assay [10], in [4], in assay [5] and in assay [6] was above 100 µM in each case. The TGI in assay [7], in assay [8] and in assay [9] was above 100 µM throughout.

Regarding `c1ccc(C[P+]2(c3ccccc3)CCCCC2)cc1`, the TGI in assay [1], in assay [2], in [3], in assay [4], in assay [5] and in [6] was above 100 µM in each case. Besides, the TGI in [7] and in assay [9] was above 100 µM each time.

Take `NCCCCN(CCCN)C(=O)OCc1ccccc1`: the TGI in assay [1], in assay [2], in assay [3], in [10], in assay [4] and in assay [5] was above 100 µM throughout. In addition, the TGI in assay [7], in [8] and in assay [9] was above 100 µM in each case.

`O=C1CCCc2ccc3c(c21)CC1(Cc2cc4c(cc2C1)CCCC4)C3`: the TGI in assay [1] is above 100 µM; in assay [2] it was 16 µM; in assay [3], above 100 µM; in [10] it was 28 µM; in assay [4], 50.9 µM; in assay [5] it was 66.3 µM. For the same compound, the TGI turned out to be 35.8 µM in assay [6], 49 µM in [7] and 35.5 µM in assay [9].

As to `CC(=O)O/N=C1\C=Cc2c(no[n+]2[O-])C1=O`, the TGI in assay [1] was found to be 31.1 µM; in [2], 17.6 µM; in assay [3] it was 38.7 µM; in assay [4] it was 32.4 µM; in [5], 33.7 µM; in assay [6], 28.1 µM. In addition, the TGI was determined as 35.5 µM in [7], 32.3 µM in assay [8] and 62 µM in assay [9].

Consider `COc1c2c(cc3oc(=O)ccc13)OC(C)(C)C=C2`, for which the TGI in assay [1] is above 125 µM; in assay [3] it was 46.3 µM; in assay [10], 34.1 µM; in assay [4], above 125 µM; in [5], 48.5 µM; in [6], 87.8 µM. Besides, the TGI in [7] amounted to 60.1 µM; in assay [9], 87.6 µM.

As to `O=C1CCCn2c3ccccc3c3ccnc1c32`, the TGI in [1] was above 100 µM; in assay [2] it was above 100 µM; in [3], above 100 µM; in assay [10], above 100 µM; in [4] it was above 56.1 µM; in [5] it was above 100 µM. Moreover, the TGI in assay [6], in assay [7] and in [9] was above 100 µM each time.

Regarding `CCNc1nc2ccccc2nc1NCC`, the TGI in [1], in [2], in assay [3], in assay [4], in [5] and in assay [6] was above 100 µM throughout. For the same compound, the TGI in assay [7], in [8] and in assay [9] was above 100 µM throughout.

For the compound `NC(=O)NC1=NCCC(=O)N1CCc1c[nH]c2ccccc12`, the TGI is 54.8 µM in assay [1]; 37.9 µM in assay [2]; 44.4 µM in assay [3]; 47.3 µM in [4]; 52.4 µM in assay [5]; 36.9 µM in assay [6]. Also, the TGI in assay [7] turned out to be 43.4 µM; in [8], 28.3 µM; in [9], 50.6 µM.

Take `C=CCn1c(-c2ccc(N=NNc3ccc(-c4n[nH]c(=S)n4CC=C)cc3)cc2)n[nH]c1=S`: the TGI in assay [1] is above 100 µM; in assay [2], above 100 µM; in assay [10], 39.1 µM; in [6], above 100 µM; in [7], above 100 µM; in assay [8], above 100 µM. For the same compound, the TGI in assay [9] is 4.63 µM.

As to `CC(=O)NC1=NC(=O)/C(=C/c2ccc(Cl)cc2Cl)N1C`, the TGI in assay [1] was above 100 µM; in assay [2], 34.8 µM; in [3] it was above 100 µM; in assay [10], above 100 µM; in [4], above 100 µM; in assay [5], above 100 µM. Besides, the TGI in assay [7] and in assay [8] was above 100 µM throughout.

As to `COc1cc(C(C)(C)C)c(OC(=O)/C=C/C(=O)O/C=C/[N+](=O)[O-])c(C(C)(C)C)c1`, the TGI in [1] is 55 µM; in assay [2], 37.3 µM; in [3], above 100 µM; in [10], above 100 µM; in [4], 56.6 µM; in [5] it was 38.5 µM. Further, the TGI in assay [7] is 42.6 µM; in assay [9], above 100 µM.

As to `O=C1N2CCN=C2c2ccccc2C1(O)c1ccccc1` (stereo not drawn), the TGI in assay [1], in [2], in assay [3], in assay [10], in assay [4] and in [5] was above 100 µM each time. The TGI in assay [7], in assay [8] and in assay [9] was above 100 µM throughout.

As to `COc1cc2[nH]c(=O)[nH]c2c2c(C)c[nH]c12`, the TGI in assay [1], in [2], in assay [3], in [4], in [5] and in [6] was above 100 µM in each case. Further, the TGI in assay [7], in assay [8] and in assay [9] was above 100 µM throughout.

Regarding `CSCC[C@@H](NC(=O)[C@H](CC(C)C)NC(=O)C(Cc1cnc[nH]1)NC(=O)CNC(=O)[C@@H](NC(=O)[C@H](C)NC(=O)[C@H](Cc1cn(C=O)c2ccccc12)NC(=O)[C@H](CCC(N)=O)NC(=O)[C@@H](N)CC(N)=O)C(C)C)C(N)=O` (stereo partly drawn), the TGI in [1], in [2], in assay [3], in assay [4], in assay [5] and in assay [6] was above 100 µM each time. Besides, the TGI in assay [7] and in assay [9] was above 100 µM each time.

In the case of `COC(CO[Si](C)(C)N[Si](C)(C)OCC(OC)c1ccccc1)c1ccccc1` (stereo not drawn), the TGI in assay [1], in [2], in [3], in assay [10], in assay [5] and in [7] was above 100 µM throughout. Moreover, the TGI in assay [8] and in [9] was above 100 µM in each case.

Take `O=C(O)CC(Cc1ccccc1)C(=O)O` (stereo not drawn): the TGI in assay [1], in [2], in assay [3], in assay [4], in assay [5] and in [6] was above 100 µM each time. For the same compound, the TGI in assay [7], in [8] and in assay [9] was above 100 µM throughout.

`COc1ccc(/C=N/N=C(N)N)c(C(=O)O)c1OC`: the TGI in assay [1], in assay [2], in [4], in assay [5], in [7] and in assay [9] was above 100 µM each time.

`CC12CCC3=C(CSC4=C3CSc3ccccc34)C1=CCCC2=O` (stereo not drawn): the TGI in assay [1], in [2], in assay [3], in assay [4], in [5] and in [6] was above 100 µM each time. Moreover, the TGI in assay [7] and in assay [9] was above 100 µM each time.

Turning to `O=c1[nH]nc(Nc2ccccc2)c2nnn(Cc3ccccc3)c12`, the TGI in assay [1], in [2], in assay [3], in [10], in assay [4] and in assay [5] was above 100 µM each time. Moreover, the TGI in assay [7] and in [8] was above 100 µM throughout.

In the case of `O=c1[nH]/c(=C/c2cccs2)c(=O)[nH]/c1=C/c1ccc(OCc2ccccc2)cn1`, the TGI is above 55.9 µM in [1]; 4.34 µM in assay [2]; 0.853 µM in [3]; above 100 µM in assay [4]; 26.3 µM in assay [5]; 0.726 µM in assay [6]. The TGI in assay [7] was 1.7 µM; in assay [8], above 44.4 µM; in assay [9], above 43.2 µM.

Turning to `S=c1sc2ccccc2n1CN1CCN(Cc2ccccc2)CC1`, the TGI in assay [1], in [2], in assay [3], in assay [10], in [4] and in assay [5] was above 100 µM in each case. The TGI in [7], in assay [8] and in [9] was above 100 µM in each case.

With `C(=C/c1ccc2nc(-c3ccc(/C=C/C=N/NC4=NCCCN4)cc3)cn2c1)/C=N/NC1=NCCCN1`, the TGI is 22 µM in assay [1]; above 100 µM in assay [2]; above 100 µM in assay [3]; above 100 µM in assay [10]; above 100 µM in assay [5]; above 100 µM in assay [7]. Besides, the TGI in assay [8] was 67.4 µM; in assay [9] it was above 100 µM.

`NC1=CN2c3ccccc3N(CC(=O)N3CCOCC3)C2C=C1` (stereo not drawn): the TGI in assay [1], in assay [2], in [10], in assay [4], in [5] and in [6] was above 100 µM in each case. In addition, the TGI in [7] and in [8] was above 100 µM throughout.

On to `N#CCCN(CCN(CCN(C(=O)Nc1ccccc1)c1ccccc1)C(=O)Nc1ccccc1)C(=O)Nc1ccccc1`, for which the TGI in [1], in assay [2], in assay [3], in assay [10], in assay [5] and in assay [7] was above 100 µM each time. Besides, the TGI in [8] and in [9] was above 100 µM throughout.

For `Cc1cc(S(=O)(=O)Nc2nc(N)n(-c3ccccc3)n2)c(S)cc1Cl`, the TGI in assay [1], in assay [2], in assay [3], in assay [4], in assay [5] and in [6] was above 100 µM each time. The TGI in assay [8] and in [9] was above 100 µM throughout.

As to `Cc1cc2nc(N)n[n+]([O-])c2cc1C`, the TGI in assay [1], in assay [2], in assay [3], in assay [4], in assay [5] and in [6] was above 100 µM in each case. Also, the TGI in assay [7], in [8] and in assay [9] was above 100 µM throughout.

For the compound `O=C(/C=C/c1ccccc1O)CC(=O)/C=C/c1ccccc1O`, the TGI in assay [1] is 26.9 µM; in assay [2] it was above 26.2 µM; in assay [3], 15.8 µM; in assay [10], 53.7 µM; in assay [6], 17.5 µM; in [7] it was 16.9 µM. The same compound registered a TGI in assay [9] of 15.5 µM.
